# Test results: article PMC11653243, “Enhancing Phototoxicity in BODIPY‐Perylene Charge Transfer Dyads by Combined Iodination and Mesylation” (Chemistry (Weinheim an Der Bergstrasse, Germany), 2024)
# “And” between values parts separate entries of the source, which are not always exact repeats. Identical values can stand only once.
# Columns and labels:
# MCF‐7 spheroids [1] = assay: Spheroid dark toxicity, CellTiter-Glo 3D; format: cell-based; settings: Homo sapiens, MCF7, light or radiation study; MCF‐7 3D (spheroids); without irradiation
# Experimental: (§1) 3D Cell Studies: Toxicity Assays
# (§2) Spheroids were seeded in a clear BIOFLOAT™ round bottom 96 well plate (Sarstedt) at 2x10^4 cells per well, centrifuged using the […] for 5 minutes at 700 rpm and allowed to grow and compact for 96 hours. A 2X concentrated solution of B2P, B2PI, MB2P or MB2PI was added in a 1:1 ratio (BODIPY:media) to each well of the 96 well plate, which contained 50 µL phenol red free media, and incubated for 24 h. Prior to irradiation 90% of the media/Ru solution was removed, replaced with fresh phenol red media to dilute the remaining BODIPY (multiple dilution steps, more required for 15 µM and above), and brought to a total volume of 100 µL. Phototoxicity studies in […] spheroids were performed as per the cell monolayer protocol with an irradiation dose of 5 J/cm2 using a 470 nm LED.
# (§3) Control studies with untreated spheroids confirmed 17 J/cm2 irradiation dose was toxic to spheroids, however the spheroids remained viable after 5 J/cm2 irradiation. CellTiter-Glo 3D cell viability assay (Promega) was used to assess spheroid viability and performed as per the manufacturer’s protocol, where the CellTiter-Glo 3D reagent was added to the spheroid wells
# MCF‐7 spheroids [2] = assay: Spheroid phototoxicity, 470 nm LED, CellTiter-Glo 3D; format: cell-based; settings: MCF‐7 3D (spheroids); for IC50: Homo sapiens, MCF7, light or radiation study, 470 nm LED, 5±0.54 J/cm^2 (2.2 mW/cm^2 for 0.5 h); for Photo Index (PI), ratio of dark IC50 to light IC50: 5 J/cm^2, 470 nm LED
# Experimental: as §1, §2, §3
# CHO cells = assay: Cellular uptake and co-localisation by confocal microscopy; format: cell-based, Chinese Hamster; settings: ER Tracker 1 µM, 45 min
# Experimental: The intracellular uptake of the BODIPY derivatives was assessed in two mammalian cell lines, CHO (non‐cancer) and MCF‐7 (cancer). […] B2P and B2PI were studied following 4 h and 17 h incubation in MCF‐7 cells with 10 μM of each BODIPY derivative. A 17 h incubation was selected to allow for adequate cell uptake of the complex, ensuring sufficient brightness for confocal imaging while minimising cell toxicity.
# Across all four compounds uptake of the BODIPYs led to extremely bright and highly punctate staining from within the cells. As all of the BODIPY‐perylene probes emit minimally from aqueous media including cell culture media (Figure S20) the bright emission is attributed to localisation of the complex to non‐aqueous domains, i. e. organelle membranes or to lipid droplets (LDs). To identify which, co‐localisation studies with targeted probes were completed. CHO and MCF‐7 cells were treated with B2P, B2PI, MB2P or MB2PI and co‐stained with specific organelle markers including LD probes; PyLa−C17Cer and BODIPY 493/503, an endoplasmic reticulum stain; ER Tracker Blue‐White and a lysosomal stain; LysoTracker Deep Red. Pyla‐C17Cer was previously published and localises in both the ER and LDs.[41] Cellular uptake of B2PI was recently reported in MCF‐7 cells, though localisation was not explored.[25]
# MCF‐7 and CHO cells were treated with B2P, MB2P, B2PI or MB2PI for 17 h and co‐stained with a number of dyes for co‐staining including LysoTracker Deep Red, ER Tracker Blue/White, PyLa−C17Cer, BODIPY 493/503 and H2DCFDA. Cells were imaged in phenol red free media using a Leica DMi8 confocal microscope with a 63x or 100x oil immersion lens and a heated state at 37 °C.
# Uptake in Live Cell Monolayers
# CHO cells were incubated in 75cm2 cell culture flasks (Corning) with DMEM/F-12 Ham medium (Sigma-Aldrich) with L-glutamine and sodium bicarbonate supplemented with 10% fetal bovine serum (FBS) (Gibco) and 1% penicillin-streptomycin (Sigma-Aldrich). MCF-7 cells were incubated in 25cm2 cell culture flasks with RPMI-1640 medium (Sigma-Aldrich) with L-glutamine and sodium bicarbonate supplemented with 10% fetal bovine serum (FBS, Gibco) and 1% penicillin-streptomycin. Cells were incubated at 37 °C with 5% CO2 and detached from the flask at 90% confluency using a 1X Trypsin-EDTA solution (Sigma-Aldrich). Cells were counted using the EVE automated cell counter (NanoEnTek) and seeded at 1 x 10^5 cells per mL in a 4 or 8 chamber µ-slide (ibidi) for cell imaging and left for 24 h at 37 °C. Cells were rinsed with 1X PBS (Gibco) and stained with B2P or B2PI at 10 µM and MB2P or MB2PI at 30 µM for 17 h. Cells were washed twice with PBS and covered with phenol red free RPMI medium (Gibco) for imaging. […]
Compound,IC50 (MCF‐7 spheroids [1]) [µM],IC50 (MCF‐7 spheroids [2]) [µM],"Photo Index (PI), ratio of dark IC50 to light IC50 (MCF‐7 spheroids [2])",Pearson Coefficient (r) with ER Tracker Blue/White (CHO cells)
CC1=C(I)C(C)=[N+]2C1=C(c1ccccc1)c1c(C)c(-c3ccc4c5cccc6cccc(c7cccc3c74)c65)c(C)n1[B-]2(F)F [B2PI],44 ± 3.84,7.65,5.7,0.46 ± 0.04 and ~0.5
CC1=CC(C)=[N+]2C1=C(c1ccccc1)c1c(C)c(-c3ccc4c5cccc6cccc(c7cccc3c74)c65)c(C)n1[B-]2(F)F [B2P],46 ± 2.38,6.91,6.6,0.17 ± 0.06
CC1=C(c2ccc3c4cccc5cccc(c6cccc2c63)c54)C(C)=[N+]2C1=C(c1c(C)cc(C)cc1C)c1c(C)c(I)c(C)n1[B-]2(F)F [MB2PI],> 50,5.62,> 8.9 and > 8,0.46 ± 0.01 and ~0.5
CC1=C(c2ccc3c4cccc5cccc(c6cccc2c63)c54)C(C)=[N+]2C1=C(c1c(C)cc(C)cc1C)c1c(C)cc(C)n1[B-]2(F)F [MB2P],> 50,6.26,> 8,0.56 ± 0.02 and ~0.5
